How the values were obtained:
[1] = system: 3T3L1 cells; assay: 3T3L1 cell differentiation (oil red O staining); type: cell-based, mouse; conditions: 50 μM during differentiation
Description: 3T3L1 mouse fibroblast cells (ATCC, CL-173™) were maintained according to the manufacture's protocol, in Dulbecco's modified eagle's medium (DMEM) containing 10% Fetal Bovine Serum and antibiotics (M1 medium). Adipocyte differentiation was performed according to standard procedures (42). Briefly, the 3T3L1 fibroblasts were seeded at 30% confluence and allowed to grow to near 100% confluence. On the day after reaching maximum confluence, conversion was induced by replacing the M1 medium with M1 medium containing insulin (5 μg/ml), dexamethasone (0.25 μM), and 3-isobutyl-1-methyl-xanthine (0.5 mM). After 2 days, the cells were changed to M1 medium with insulin (5 μg/ml) for an additional 2 days. […]
50 μM of stearate, oleate or linoleate was used to treat 3T3L1 cells as this concentration is centered within the normal range for non-esterified stearate in the plasma of humans. […] The concentration of stearate in the solution was detected by use of a NEFA C kit. […]
Cellular lipids were stained with oil red O. Briefly, identical numbers of 3T3L1 cells were placed in 6-well plates, cultured and converted to adipocytes as described above. […] 200 cells were counted under the microscope in each sample, and the percentage of converted adipocytes was calculated. […] The oil red O was then eluted with 1 ml 100% isopropanol, and the OD was measured at 520 nm in a spectrophotometer.

[2] = system: p21^CIP1/WAF1, p27^KIP1, pCdk2; assay: Immunoblot of p21CIP1/WAF1, p27KIP1 and phosphorylated Cdk2 in Hs578T cells; type: cell-based, human; conditions: 50 μM stearate, Hs578T
Description: (§1) The concentration of stearate used to treat the Hs578T cells was 50 μM. When EGF was used, the concentration was 1 nM EGF. Before the treatment with stearate or EGF, cells were first starved for 24-48 hours. Stearate was loaded onto fatty acid-free bovine serum albumin (BSA) according to the method reported by Spector et al. (13); briefly, stearate (0.5 g) was dissolved in chloroform (100 ml) and mixed well with 10 g diatomaceous earth in a 1 liter flask. The mixture was stirred and dried under nitrogen until powder. BSA is a physiological carrier of fatty acids and was used to avoid the introduction of organic solvents to solutions coming into contact with cells. Fatty acid-free BSA (1 g) was dissolved in 100 ml with Dulbecco's modified Eagle's medium without phenol red and mixed with 3 g of the stearate/diatomaceous earth mixture with stirring for 45 min. The stearate/BSA solution was filtered through a 0.45 μm filter, and adjusted to pH 7.4. The concentration of stearate in the solution was detected with the NEFA C Kit from Wako Chemicals GmbH (Neuss, Germany). All experimental data on Hs578T cells were controlled using fatty acid-free BSA control solutions that were put through the same preparatory procedure described for the stearate/BSA solution except for the fact that no fatty acid was added.
Cells were treated as described above, and lysed with lysis buffer. The supernatants of the lysates or the immunoprecipitates were loaded with Laemmli sample buffer on 10% sodium dodecyl sulfate-polyacrylamide gel electrophoresis gels after boiling at 100° C. for 5 min. Proteins were then transferred to a polyvinylidene difluoride membrane. The membranes were blocked overnight at 4° C. with blocking buffer containing 5% non-fat dried milk powder in Tris-buffered saline-T (25 mM Tris, 140 mM NaCl, 2.7 mM KCl, 0.05% Tween-20, pH 8.0), incubated with primary antibody in blocking buffer at room temperature for 1 hour and incubated with antirabbit or antimouse antibodies labeled with horseradish peroxidase (1:5000) in blocking buffer under the same conditions, and then washed three times for 10 min in Tris-buffered saline-T. The polyvinylidene difluoride membranes were washed and developed using enhanced chemiluminescence reagents.

[3] = system: Ras; assay: Ras activation assay in Hs578T cells; type: cell-based, human; conditions: with or without EGF
Description: as §1, with “All experimental data on Hs578T cells were controlled using fatty acid-free BSA control solutions that were put through the same preparatory procedure described for the stearate/BSA solution except for the fact that no fatty acid was added.” left out
Ras and Rho activation assay kits were purchased from Millipore (Billerica, Mass.). […] The beads were washed three times with lysis buffer B. Bound Ras-GTP and Rho-GTP proteins were detected by immunoblot using Ras and Rho antibodies.

[4] = system: ERK; assay: Immunoblot of phosphorylated ERK in Hs578T cells; type: cell-based, human; conditions: between 8 and 16 h post-stearate, sustained up to 24 h
Description: as §1
Cells were treated as described above, and lysed with lysis buffer. […]

**Q.** How did the “Oil red O eluted, OD value” [1] turn out when `CCCCCCCCCCCCCCCCCC(=O)O` [stearate, Stearic acid] was run?
**A.** no difference

**Q.** And the “Percentage of differentiated adipocytes” value ([1]; vs control)?
**A.** no significant difference

**Q.** And the “Protein level of p21^CIP1/WAF1” value [2]?
**A.** increases

**Q.** What about the “Protein level of p27^KIP1” value [2] of the same compound?
**A.** increases

**Q.** And the pCdk2 [2]?
**A.** decreased

**Q.** And the “Binding of GTP to Ras” value [3]?
**A.** increases

**Q.** What about the “Phosphorylation of ERK” value [4] of the same compound?
**A.** increased

Source: patent publication US20140357706A1, “Stearate Compounds” (THE UAB RESEARCH FOUNDATION, priority 2011, published 2014)
